Data on one molecule can be found in ChEMBL document CHEMBL1131730, “Isolation and characterization of an active-site peptide from a sterol methyl transferase with a mechanism-based inhibitor” (Bioorg Med Chem Lett, 1999).

A short description of data set [1]: (§1) Rate of inactivation of sterol methyl transferase from Saccharomyces cerevisiae using mechanism based inhibitor.
A further data set deals with Saccharomyces cerevisiae. The data set is described as §1. In kind it is organism-based. The settings on record: in vivo.

The molecule `CC(C)C(C)CC[C@@H](C)C1CCC2C3=C(CCC21C)C1(C)CCC(O)CC1CC3` (some centres not stated) showed a Ki in data set [1] of 1100 nM. In the data set on Saccharomyces cerevisiae, this molecule had a Ki inact of 1.52 min⁻¹.
